# Source: ChEMBL document CHEMBL4052601, “Glycybridins A-K, Bioactive Phenolic Compounds from Glycyrrhiza glabra” (J Nat Prod, 2017)
# pIC50: −log10 of the molar value. Activity calls are given as the source filed them. The calls are words filed in the database; no cut-off is given here.
# Key:
# RAW264.7 [1] = test: Antiinflammatory activity against mouse RAW264.7 cells assessed as inhibition of LPS-induced nitric oxide production at 10 uM after 24 hrs by Griess assay relative to control; type: functional; settings: RAW264.7, 24 h
# Homo sapiens = test: Inhibition of LPS-induced NF-kappaB (unknown origin) transactivation expressed in human SW480 cells at 10 uM administered 1 hr after LPS stimulation measured after 6 hrs by luciferase reporter gene assay relative to control; type: cell-based
# [2] = Inhibition of LPS-induced NF-kappaB (unknown origin) transactivation expressed in human SW480 cells administered 1 hr after LPS stimulation measured after 6 hrs by luciferase reporter gene assay; type: cell-based
# HepG2 = test: Antiproliferative activity against human HepG2 cells at 10 uM after 24 hrs by MTS assay relative to control; type: functional; settings: HepG2, 24 h
# A549 [3] = test: Antiproliferative activity against human A549 cells at 10 uM after 24 hrs by MTS assay relative to control; type: functional; settings: A549, 24 h
# MCF7 = test: Antiproliferative activity against human MCF7 cells at 10 uM after 24 hrs by MTS assay relative to control; type: functional; settings: MCF7, 24 h
# SW480 = test: Antiproliferative activity against human SW480 cells at 10 uM after 24 hrs by MTS assay relative to control; type: functional; settings: SW480, 24 h
# [4] = biological target: T1, Tyrosinase (Homo sapiens) (UniProt P14679); settings: at 10 µM
# T1 sequence (whole entry): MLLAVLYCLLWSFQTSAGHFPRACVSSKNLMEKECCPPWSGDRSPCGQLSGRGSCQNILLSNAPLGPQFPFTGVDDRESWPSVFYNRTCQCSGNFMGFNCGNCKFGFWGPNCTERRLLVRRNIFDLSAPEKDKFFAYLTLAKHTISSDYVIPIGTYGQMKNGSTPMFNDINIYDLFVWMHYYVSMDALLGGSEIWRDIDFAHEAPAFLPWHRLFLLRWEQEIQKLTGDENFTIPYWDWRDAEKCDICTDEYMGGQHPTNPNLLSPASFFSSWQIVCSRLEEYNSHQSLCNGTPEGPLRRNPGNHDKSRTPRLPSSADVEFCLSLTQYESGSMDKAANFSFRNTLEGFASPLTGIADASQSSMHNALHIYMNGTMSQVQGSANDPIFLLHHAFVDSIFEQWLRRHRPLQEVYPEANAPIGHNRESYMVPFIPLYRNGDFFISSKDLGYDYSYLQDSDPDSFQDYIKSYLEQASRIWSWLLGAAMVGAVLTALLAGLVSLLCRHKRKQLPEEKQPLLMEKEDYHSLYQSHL
# Description: Inhibition of tyrosinase (unknown origin) using L-tyrosine as substrate at 10 uM preincubated for 15 mins followed by substrate addition relative to control
# [5] = biological target: T2, Tyrosine-protein phosphatase non-receptor type 1 (Homo sapiens) (UniProt P18031); settings: at 10 µM
# T2 sequence (whole entry): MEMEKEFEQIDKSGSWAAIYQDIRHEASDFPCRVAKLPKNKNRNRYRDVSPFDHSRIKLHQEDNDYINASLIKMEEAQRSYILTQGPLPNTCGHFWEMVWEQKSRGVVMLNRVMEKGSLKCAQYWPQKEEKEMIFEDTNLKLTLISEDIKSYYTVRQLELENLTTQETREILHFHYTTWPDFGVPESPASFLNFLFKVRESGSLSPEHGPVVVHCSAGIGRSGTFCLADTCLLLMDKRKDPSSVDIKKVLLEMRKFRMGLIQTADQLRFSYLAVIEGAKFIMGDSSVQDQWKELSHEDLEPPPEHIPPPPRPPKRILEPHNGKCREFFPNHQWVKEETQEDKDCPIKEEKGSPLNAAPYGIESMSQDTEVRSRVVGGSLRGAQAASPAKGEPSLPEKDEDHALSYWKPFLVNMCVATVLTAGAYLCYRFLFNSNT
# Description: Inhibition of recombinant human PTP1B using pNPP as substrate at 10 uM after 30 mins relative to control
# A549 [6] = test: Antitumor activity against human A549 cells xenografted in BALB/c nude mouse assessed as tumor growth inhibition at 5 mg/kg, ip administered as daily dose for 16 days; type: functional, organism-based
# Mus musculus [7] = test: Toxicity in BALB/c nude mouse xenografted with human A549 cells at 5 mg/kg, ip administered as daily dose for 16 days relative to control; type: organism-based; settings: in vivo, 384 h
# Mus musculus [8] = test: Toxicity in BALB/c nude mouse xenografted with human A549 cells assessed as change in body weight at 5 mg/kg, ip administered as daily dose for 16 days relative to control; type: organism-based; settings: in vivo, 384 h
# RAW264.7 [9] = test: Antiinflammatory activity against mouse RAW264.7 cells assessed as inhibition of LPS induced nitric oxide production at 20 uM […] followed by LPS challenge […] relative to control; type: functional
# [10] = biological target: T3, Nuclear factor erythroid 2-related factor 2 (Homo sapiens) (UniProt Q16236); test: Activation of Nrf2 (unknown origin) expressed in human HepG2 cells after 6 hrs by ARE-driven luciferase reporter gene assay relative to control; type: cell-based
# T3 sequence (whole entry): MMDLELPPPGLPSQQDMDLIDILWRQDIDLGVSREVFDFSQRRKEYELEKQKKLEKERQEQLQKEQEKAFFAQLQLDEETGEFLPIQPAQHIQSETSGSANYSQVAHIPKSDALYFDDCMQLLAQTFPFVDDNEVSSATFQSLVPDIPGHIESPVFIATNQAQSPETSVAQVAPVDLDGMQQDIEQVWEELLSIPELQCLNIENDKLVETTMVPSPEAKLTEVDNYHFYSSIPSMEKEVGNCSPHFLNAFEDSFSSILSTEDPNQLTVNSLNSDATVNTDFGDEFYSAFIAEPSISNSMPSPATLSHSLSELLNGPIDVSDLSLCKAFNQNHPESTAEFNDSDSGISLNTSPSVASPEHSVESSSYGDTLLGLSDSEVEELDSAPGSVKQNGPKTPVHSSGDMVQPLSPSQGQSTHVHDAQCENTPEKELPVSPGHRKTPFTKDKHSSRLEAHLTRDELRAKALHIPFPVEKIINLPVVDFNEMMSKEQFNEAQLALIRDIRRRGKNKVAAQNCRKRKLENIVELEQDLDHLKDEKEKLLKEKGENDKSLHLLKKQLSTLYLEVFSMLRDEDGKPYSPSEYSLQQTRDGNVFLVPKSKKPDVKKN
# Tyrosinase [11] = biological target: T4, Tyrosinase (Homo sapiens, UniProt P14679); test: Inhibition of tyrosinase (unknown origin) using L-tyrosine as substrate preincubated for 5 mins followed by substrate addition
# T4 sequence (P14679 whole entry): T1 sequence (whole entry)
# [12] = biological target: T2, Tyrosine-protein phosphatase non-receptor type 1 (Homo sapiens); test: (§1) Inhibition of recombinant human PTP1B using pNPP as substrate after 30 mins
# [13] = biological target: T5, Tyrosine-protein phosphatase non-receptor type 1 (Homo sapiens, UniProt P18031); test: as §1
# T5 sequence (P18031 whole entry): T2 sequence (whole entry)
# Tyrosinase [14] = biological target: T4, Tyrosinase; test: Inhibition of tyrosinase (unknown origin) using L-tyrosine as substrate preincubated for 15 mins followed by substrate addition
# RAW264.7 [15] = test: Antiinflammatory activity against mouse RAW264.7 cells assessed as inhibition of LPS-induced nitric oxide production after 24 hrs by Griess assay; type: functional, cell-based; settings: RAW264.7, 24 h
Structure (SMILES),pIC50 [2],inhibition [4] [%],inhibition [5] [%],Activity [10],pIC50 (Tyrosinase [11]),inhibition [12],pIC50 [13],pIC50 (Tyrosinase [14]),pIC50 (RAW264.7 [15]),inhibition at 10 µM (RAW264.7 [1]) [%],inhibition (Homo sapiens) [%],inhibition at 10 µM (HepG2) [%],inhibition at 10 µM (A549 [3]) [%],inhibition at 10 µM (MCF7) [%],inhibition at 10 µM (SW480) [%],TGI (A549 [6]),Activity (Mus musculus [7]),Activity (Mus musculus [8]),fold change (FC) (RAW264.7 [9])
CC1(C)C=Cc2cc(/C=C/C(=O)c3ccc(O)cc3O)ccc2O1,5.26,4.4,56.5,,,,,,,0,60.7,11.1,2.6,45.7,7.9,,,,
COc1cc([C@@H]2c3cc4c(cc3[C@@H](O[C@@H]3O[C@@H]5CO[C@@H](C)O[C@H]5[C@H](O)[C@H]3O)[C@H]3COC(=O)[C@H]23)OCO4)cc(OC)c1O [ETOPOSIDE],,,,,,,,,,,,,,,,Active,Non-Toxic,Toxic,
C=CC(C)(C)c1cc(/C=C/C(=O)c2ccc(O)cc2)c(OC)cc1O [LICOAGROCHACONE A],,10.6,14.5,Dose-dependent effect,,,,,,14.2,57.2,57.9,17.8,55.9,13.6,,,,0.8
CC1(C)C=Cc2c(ccc3c2OC[C@@H](c2ccc(O)cc2O)C3)O1 [GLABRIDIN],,99.7,3.6,,7.05,,,,,19.8,0,12.1,12.7,8.8,19.8,,,,
CC(C)=CCc1cc(/C=C/C(=O)c2ccc(O)cc2O)ccc1O [LICOAGROCHALCONE A],5.21,22.6,17.2,,,,,,,31.6,69,33.9,6.4,35.4,18.3,,,,
CC1(C)C=Cc2c(ccc(-c3cc4ccc(O)cc4o3)c2O)O1,5.19,41.7,22.8,,,,,,,21.6,75.8,15.6,14.4,15.1,27.7,,,,
CC1(C)C=Cc2c(O)ccc(C3=Cc4ccc(O)cc4OC3)c2O1 [GLABRENE],,76.6,7.1,,,,,5.12,5.02,57.5,41.7,25.9,0,17.6,30.7,,,,
CC1(C)C=Cc2cc3cc(-c4ccc(O)cc4O)c(=O)oc3cc2O1,,84,56.9,,,,,5.55,,21.2,0,14.4,0,24.5,18.1,,,,

# Now from value to molecule, other results behind:
pIC50 [2],inhibition [4] [%],inhibition [5] [%],Activity [10],pIC50 (Tyrosinase [11]),inhibition [12],pIC50 [13],pIC50 (Tyrosinase [14]),pIC50 (RAW264.7 [15]),Structure (SMILES),inhibition at 10 µM (RAW264.7 [1]) [%],inhibition (Homo sapiens) [%],inhibition at 10 µM (HepG2) [%],inhibition at 10 µM (A549 [3]) [%],inhibition at 10 µM (MCF7) [%],inhibition at 10 µM (SW480) [%],TGI (A549 [6]),Activity (Mus musculus [7]),Activity (Mus musculus [8]),fold change (FC) (RAW264.7 [9])
,3.1,71,,,Dose-dependent effect,5.10 to 5.30,,,CC(C)=CCc1c(O)ccc2c1O[C@H](c1ccc3c(c1)C=CC(C)(C)O3)CC2=O,0,44.7,76.5,0,71.2,34.8,,,,
,3.2,62.6,,,Dose-dependent effect,5.10 to 5.30,,,CC(C)=CCc1cc([C@@H]2CC(=O)c3ccc4c(c3O2)C=CC(C)(C)O4)ccc1O [SHINFLAVANONE],11.3,15.5,16.9,5.1,36.5,25,,,,
,68.3,9.9,,,,,5.29,,COc1ccc(C2COc3c(ccc(O)c3CC=C(C)C)C2=O)c(O)c1 (configuration not stated),18.1,0,50.3,9.4,8.7,27.8,,,,
